Square brackets hold non-standard residues; d marks the D form. Ends that are not written are not given here. Peptide text beside a SMILES is read from it.
Tests used:
human MC5-receptor = target: T1, human MC5-receptor (Homo sapiens, UniProt P33032); test: Competition for [125I]NDP-MSH binding to recombinant human MC5-receptor in COS cells; conditions: for Ki: [125I]NDP-MSH competition, transfected COS cells
T1 construct: expressed in transfected cells; host or cells: COS (COS-1) cells, transient, 48 h
Experimental: (§1) Expression of receptor clones. Human MC1- and MC5-receptor DNAs (Chhajlani and Wikberg 1992; Chhajlani et al., 1993), cloned into the expression vector pRc/CMV (InVitrogen Corp., USA), and human MC3- and human MC4-receptor DNAs (Gantz et al., 1993a & b), cloned into the expression vector pCMV/neo, were used. COS cells were grown and transfected with receptor clones as described (Schiöbth et al. 1995, 1996b). After transfection cells were cultivated for 48 h, detached from the Petri dishes, and used for radioligand binding as described (Schiöth et al. 1995, 1996b).
(§2) Binding studies. […] The competition data were analyzed by fitting it to the logistic function using non-linear regression analysis. The Ki-values were then calculated from the thus obtained IC50-values by using the Cheng and Prusoff equation, essentially as described by Schiöth et al. 1995, 1996b.

human MC1-receptor [1] = target: T2, human MC1-receptor (Homo sapiens, UniProt Q01726); test: Stimulation of cAMP formation in B16G4F cells stably expressing human MC1-receptors; type: cell-based; design: expressed in transfected cells; conditions: for Fold stimulation of cAMP: vs untreated control cells, mean ± SD of 3 experiments
Experimental: Human MC1-receptors had been cloned earlier into pZeoSV (Invitrogen) (Szardenings et al., 1997). The resulting vectors were used for transformation of the amelanotic mouse melanoma cell line B16G4F that lacks the mouse MC1-receptors (Solca et al., 1993) using liposomes (Campbell, 1995) as described previously (Schiöth et al., 1997b). Cells were cultivated in Dulbecco's modified Eagle's medium with 10% fetal calf serum at 7% CO2 for 24 hours and seeded on large plates in the same medium containing 300 μg/ml Zeocin. The medium was exchanged every 4-5 days until cell foci appeared. Single foci were isolated and grown under antibiotic selection.
For cAMP measurements the cells were detached from 60-80% confluent adherent cultures using Hank's balanced salts containing 0.5 mM EDTA and incubated for 30-60 min at 37° C. in ordinary growth medium containing 0.5 mM of the phosphodiesterase inhibitor 3-isobutyl-1-methyl-xanthine (IBMX). 20 μl aliquots of appropriate dilutions of test compounds in growth medium were prepared in 96 well microtitre plates and placed in a water bath at 37° C. For the stimulation about 1.5×10^5 cells in 180 μl were quickly added to each well to obtain immediate mixing. After 20 min 20 μl of 4.4 M perchloric acid were added, mixed, neutralized after a few minutes by addition of 20 μl base (5 M KOH, 1 M Tris) and centrifuged.
20 μl of acid treated supernatant obtained above were mixed with 50 μl buffer (100 mM Tris-Cl, 250 mM NaCl, 10 mM EDTA, 0.1% mercaptoethanol, 0.5 mM IBMX, pH=7.4) containing 0.01 μCi [^3H]cAMP (Amersham, 1.04 TBq/mmol, 1 μCi/μl, product no.: TRK304). 200 μl of the same buffer containing a 1:16 diluted porcine adrenal gland bark extract (prepared as described by Nordstedt and Fredholm, 1990) were added and the microtitre plates were incubated for at least 2 hours at 4° C. A standard curve was prepared in the same manner with dilutions of cAMP covering the range 2 μM -0.5 nM.
After completion of incubation the solutions were filtered over GF-B glassfibre filters (Whatman) and washed briefly with ca. 2 ml ice-cold washing buffer (50 mM Tris-Cl, pH=7.4). Radioactivity on the filters was measured after-addition of scintillation liquid. Stimulation experiments were determined in quadruplicates and standard curves in duplicates.

human MC3-receptor = target: T3, human MC3-receptor (Homo sapiens, UniProt P41968); test: Competition for [125I]NDP-MSH binding to recombinant human MC3-receptor in COS cells; conditions: for Ki: [125I]NDP-MSH competition, transfected COS cells
T3 construct: expressed in transfected cells; host or cells: COS (COS-1) cells, transient, 48 h
Experimental: as §1, §2

human MC1-receptor [2] = target: T2, human MC1-receptor; test: Competition for [125I]NDP-MSH binding to recombinant human MC1-receptor in COS cells; design: expressed in transfected cells; host or cells: COS (COS-1) cells, transient, 48 h; conditions: [125I]NDP-MSH competition, transfected COS cells
Experimental: as §1, §2

human MC4-receptor = target: T4, human MC4-receptor (Homo sapiens, UniProt P32245); test: Competition for [125I]NDP-MSH binding to recombinant human MC4-receptor in COS cells; conditions: for Ki: [125I]NDP-MSH competition, transfected COS cells
T4 construct: expressed in transfected cells; host or cells: COS (COS-1) cells, transient, 48 h
Experimental: as §1, §2

[3] = test system: mouse RAW 264.7 macrophage cells; test: Stimulation of cAMP-formation in mouse RAW 264.7 macrophage cells; type: cell-based; conditions: FIG. 5; both peptides at similar potencies and efficacies
Experimental: RAW 264.7 cells were grown as described in Example 6. cAMP was determined essentially as described in Example 5.

[4] = test system: mouse RAW 264.7 macrophage cells; test: Inhibition of nitric oxide production in LPS/interferon gamma stimulated RAW 264.7 cells; type: cell-based; conditions: FIG. 6; 100 ng/mL LPS + 5 units/mL interferon gamma, 16 h; potencies and efficacies similar to α-MSH
Experimental: RAW 264.7 cells (TIB-71), obtained from American Type Culture Collection, 12301 Parklawn Drive, Rockville, Md., 20852, USA, and cultured in Dulbecco's modified Eagle medium (Gibco, BRL) supplemented with 10% heat-inactivated fetal bovine serum, 100 IU penicillin/ml and 100 μg streptomycin/ml at 37° C. in a humidified atmosphere of 95% air and 5% CO2. Cells grown in monolayers were detached from the culture flasks and collected by low speed centrifugation (700×g). […]
Nitric oxide was measured by monitoring the nitrite production essentially using the method of Wishnok et al. (Methods in Enzymology, 1996, 268, 130-151). In brief 50 μL of culture medium was mixed with 50 μL Griess reagent (i.e. a 1:1 mixture of 0.1% N-naphthylethylenediamine dihydrochloride and 1% sulfanilamide in 5% (v/v) phosphoric acid) and after 10 min the absorption was measured at 540 nm. The nitrite concentrations were calculated from a standard curve constructed, by instead of culture medium, adding 50 μL of between 3 to 100 μM of NaNO2 to the assays.

mouse B16 melanoma cells = test: Stimulation of cAMP-formation in mouse B16 melanoma cells; type: cell-based; conditions: FIG. 3; both peptides at similar potencies and efficacies
Experimental: B16 mouse melanoma cells (B16-F1; CRL-6323, American Type Culture Collection, 12301 Parklawn Drive, Rockville, Md., 20852), were cultured in Dulbecco's modified Eagle medium (DMEM; Gibco BRA Gaithersburg, USA, cat no. 041-01966H) supplemented with 10% heat-inactivated fetal bovine serum, 100 IU penicillin/mL and 100 μg streptomycin/mL at 37° C. in a humidified atmosphere of 95% air and 5% CO2. Cells grown in monolayers were detached from 60-80% confluent adherent cultures using Hank's balanced salts containing 0.5 mM EDTA and collected by low speed centrifugation (700×g).
The cells were incubated for 30 min at 37° C. in DMEM containing 0.5 mM of the phosphodiesterase inhibitor 3-isobutyl-1-methyl-xanthine (IBMX). 20 μL aliquots of appropriate dilutions of test compounds in growth medium were prepared in 96 well microtitre plates The plates were then placed in a water bath at 37° C. and about 1.5×10^5 cells in 180 μL were quickly added to each well to obtain immediate mixing. […]
After completion of the incubations the solutions were rapidly filtered onto GF-B glassfibre filters (Whatman), followed by rapid washing of filters with 2 ml ice-cold washing buffer (50 mM Tris-Cl, pH 7.4). […] Radioactivity was counted using a β-counter. Cell experiments were determined in quadruplicates and standard curves in duplicates.

BALB/C mice = test: DNFB contact hypersensitivity in BALB/C mice (paw oedema, blood cell counts); type: in vivo, mouse; conditions: for inhibition of paw oedema: daily, vs DNFB animals not given MS05
Experimental: Marked positive treatment effects were found upon administration of MS05 to BALB/C mice. Animals were sensitized by injection of 2,4-dinitrofluorobenzene (DNFB). First 30 μL of 0.5% DNFB was administered to the shaved abdomen of the mice and after 4 days 10 μL of 0.3% DNFB was challenged to one paw, another paw being unchallenged and serving as a control. MS05 was administered, using a solution of MS05 in 0.9% saline, intraperitonally two hours before sensitization, and then the same dose was given intra-peritonally for four consecutive days, each dose of MS05 amounting to 0.05, 0.25, 0.37, 0.5 and 0.75 mg/kg. […] Therefore the compound of the invention is in a further sense immunomodulatory.

[5] = test system: human microvascular endothelial cells (HMEC-1 cells); test: TNF α induced adhesion molecule expression in HMEC-1 cells; type: cell-based; conditions: TNF α 10 ng/mL
Experimental: In further tests the MS05 or MS09 was administered to human microvascular endothelial cells (HMEC-1 cells; Department of Health & Human Services, Centres for Disease Control and Prevention, Atlanta, Ga. 30333, USA) in vitro. […] In this context by ICAM-1 is intended intercellular adhesion molecule type 1, by VCAM is intended vascular adhesion molecule, and by E-Selectin is intended endothelial selectin (Sluiter et al, J. Cardiovasc. Pharmacol. 1993, 22 Suppl 4: S37-44, Elangbam et al., Vet. Pathol. 1997 Jan. 34(1): 61-73).

[6] = intraperitoneal, best effect at 0.5 mg/kg daily

T2 sequence (Q01726 whole entry): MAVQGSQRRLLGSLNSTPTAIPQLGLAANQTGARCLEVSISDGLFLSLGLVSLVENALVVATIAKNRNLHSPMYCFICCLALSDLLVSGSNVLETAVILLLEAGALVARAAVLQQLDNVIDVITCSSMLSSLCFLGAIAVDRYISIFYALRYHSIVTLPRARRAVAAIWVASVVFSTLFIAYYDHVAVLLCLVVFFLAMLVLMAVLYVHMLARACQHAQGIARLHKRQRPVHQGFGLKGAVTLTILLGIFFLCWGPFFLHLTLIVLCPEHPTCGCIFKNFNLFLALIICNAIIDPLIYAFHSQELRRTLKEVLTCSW
T4 sequence (P32245 whole entry): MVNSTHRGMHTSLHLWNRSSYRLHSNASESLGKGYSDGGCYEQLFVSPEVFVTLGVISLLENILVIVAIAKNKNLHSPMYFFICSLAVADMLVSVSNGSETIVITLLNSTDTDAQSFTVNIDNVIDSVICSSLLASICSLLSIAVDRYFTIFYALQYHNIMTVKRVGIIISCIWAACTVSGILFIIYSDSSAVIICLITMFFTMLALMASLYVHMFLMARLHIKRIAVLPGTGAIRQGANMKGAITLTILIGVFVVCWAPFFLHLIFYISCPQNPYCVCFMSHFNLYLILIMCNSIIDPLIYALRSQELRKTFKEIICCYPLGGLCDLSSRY
T1 sequence (P33032 whole entry): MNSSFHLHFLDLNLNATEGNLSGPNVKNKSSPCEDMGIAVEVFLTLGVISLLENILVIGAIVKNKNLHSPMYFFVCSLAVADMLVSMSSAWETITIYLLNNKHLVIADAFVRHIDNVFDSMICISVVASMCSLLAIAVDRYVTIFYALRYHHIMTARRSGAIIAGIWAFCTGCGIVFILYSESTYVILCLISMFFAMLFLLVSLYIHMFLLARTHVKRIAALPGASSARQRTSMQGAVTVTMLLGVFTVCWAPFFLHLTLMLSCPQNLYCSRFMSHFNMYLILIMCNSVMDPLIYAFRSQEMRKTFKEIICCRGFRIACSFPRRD
T3 sequence (P41968 whole entry): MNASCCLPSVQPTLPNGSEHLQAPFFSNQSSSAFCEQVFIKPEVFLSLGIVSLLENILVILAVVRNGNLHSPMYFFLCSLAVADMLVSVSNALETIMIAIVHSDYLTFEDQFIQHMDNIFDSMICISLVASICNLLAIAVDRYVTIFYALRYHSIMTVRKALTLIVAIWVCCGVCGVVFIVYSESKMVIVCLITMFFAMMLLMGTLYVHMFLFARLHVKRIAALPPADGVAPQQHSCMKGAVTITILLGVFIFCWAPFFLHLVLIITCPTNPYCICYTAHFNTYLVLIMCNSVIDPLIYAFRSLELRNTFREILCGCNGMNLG

CC[C@H](C)[C@H](NC(=O)[C@H](CO)NC(=O)[C@@H](N)CO)C(=O)N[C@H](C(=O)N[C@@H](CO)C(=O)N[C@@H](Cc1c[nH]cn1)C(=O)N[C@H](Cc1ccccc1)C(=O)N[C@@H](CCCNC(=N)N)C(=O)N[C@@H](Cc1c[nH]c2ccccc12)C(=O)NCC(=O)N[C@@H](CCCCN)C(=O)N1CCC[C@H]1C(=O)N[C@H](C(N)=O)C(C)C)[C@@H](C)CC [MS09, Ser-Ser-Ile-Ile-Ser-His-dPhe-Arg-Trp-Gly-Lys-Pro-Val-NH2] (H-SSIISH[dF]RWGKPV-NH2)
Ki (human MC5-receptor): 120 nM
% of 10 nM α-MSH (cAMP stimulation) (human MC1-receptor [1]; 10 nM compound): 89%
Ki (human MC3-receptor): 7 nM
Ki (human MC1-receptor [2]): 0.2 nM
Ki (human MC4-receptor): 40 nM

SSIISHFRWGKPV-NH2 [MS05, L-seryl-L-seryl-L-Isoleucyl-L-isoleucyl-L-seryl -L-histidyl-L-phenylalanyl-L-arginyl-L-tryptophanyl-glycyl-L-lysyl-L-prolyl-L-valinamide]
effect on cAMP levels in mouse RAW 264.7 cells [3]: marked increase in cAMP
inhibition of NO-production [4]: strong dose dependent inhibition
Ki (human MC5-receptor): > 50000 nM
fold lower affinity for the MC5 receptor than for the MC1-receptor (human MC5-receptor; ratio of Ki values): more than 65000 fold
% of 10 nM α-MSH (cAMP stimulation) (human MC1-receptor [1]; 10 nM compound): 69%
Fold stimulation of cAMP (human MC1-receptor [1]; 10 nM compound): 4.6 ± 0.3 fold
Fold stimulation of cAMP (human MC1-receptor [1]; 1 μM compound): 6.7 ± 0.3 fold
effect on cAMP levels in mouse B16 melanoma cells (mouse B16 melanoma cells): marked increase in cAMP
inhibition of paw oedema (BALB/C mice; 0.05 mg/kg intraperitoneal): 3%
inhibition of paw oedema (BALB/C mice; 0.25 mg/kg intraperitoneal): 5%
inhibition of paw oedema (BALB/C mice; 0.37 mg/kg intraperitoneal): 12%
inhibition of paw oedema (BALB/C mice; 0.5 mg/kg intraperitoneal): 39%
inhibition of paw oedema (BALB/C mice; 0.75 mg/kg intraperitoneal): 10%
DNFB induced increase in blood platelet counts (BALB/C mice; intraperitoneal): returned towards the normal
DNFB induced increase in count of lymphocytes/monocytes in the blood (BALB/C mice; intraperitoneal): essentially returned to normal levels
DNFB induced increase in granulocyte counts of the blood (BALB/C mice; [6]): essentially normalized
DNFB induced increase in total white cell blood counts (BALB/C mice; [6]): essentially normalized
TNF α upregulated expression of mRNA for ICAM-1, VCAM and E-Selectin [5]: inhibition of the upregulated expression of mRNA
TNF α upregulation of the ICAM-1, VCAM and E-Selectin proteins [5]: inhibition of the upregulation
Ki (human MC3-receptor): 1360 nM
fold lower affinity for the MC3 receptor than for the MC1-receptor (human MC3-receptor; ratio of Ki values): 1800 fold
Ki (human MC1-receptor [2]): 0.76 nM
Ki (human MC4-receptor): > 50000 nM
fold lower affinity for the MC4 receptor than for the MC1-receptor (human MC4-receptor; ratio of Ki values): more than 65000 fold
